Experimental data taken from US8883798B2, “Pyrimidine compounds inhibiting the formation of nitric oxide and prostaglandin E2, method of production thereof and use thereof” (Ustav Organicke Chemie a Biochemie Akademie Ved CR, V.V.I., priority 2011, dated 2014).

Columns and labels:
[1] = test system: production of prostaglandin E2 (PGE2); test: Production of prostaglandin E2 (PGE2) in cultures of mouse peritoneal cells stimulated with LPS (ELISA kit); format: cell-based, mice; settings: for Production of prostaglandins IC50 (μmol · 1^−1) average value and range of values: Table 3B, 6 h; for Production of prostaglandins in % of the controls: Table 3A, substance 50 μmol·l^−1, 6 h
Procedure, shortened: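 C57BL/6 mouse peritoneal cells (3×10^6/mL) stimulated with LPS (10 ng/mL). PGE2 measured by ELISA.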

[2] = test system: peritoneal cells of mice; test: Cell viability of mouse peritoneal cells (WST-1 kit); format: cell-based; settings: substance 50 μmol·l^−1, 24 h; for Cell viabilities in % of the controls: Table 3B; for Cell viability in % of the controls: Table 3A
Procedure, shortened: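 C57BL/6 mouse peritoneal cells (1×10^6/mL) cultured 24 h with compounds at 50 μmol·l^−1. Viability read with WST-1 tetrazolium salt and expressed as percent of untreated control cells (100%).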

[3] = test system: production of nitric oxide (NO); test: Production of nitric oxide (NO) in cultures of mouse peritoneal cells stimulated with IFN-γ plus LPS (Griess reagent); format: cell-based, mice; settings: substance 50 μmol·l^−1, IFN-g plus LPS, 24 h
Procedure, shortened: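 C57BL/6 mouse peritoneal cells (2×10^6/mL) stimulated with IFN-γ (5000 pg/mL) plus LPS (100 pg/mL), compounds at 50 μmol·l^−1. Nitrite measured by Griess reagent after 24 h, expressed as % of stimulated control (set 100%); IC50 is concentration reducing NO by 50%.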

Row | SMILES | melting point | other results
1 | CCCCc1c(Cl)nc(O)nc1Cl [Substance 65, 5-butyl-4,6-dichloro-2-hydroxypyrimidine] | 73 to 75 °C | –
2 | CCCCc1c(Cl)nc(N)nc1-c1ccsc1 [Substance 42, 2-amino-5-butyl-4-chloro-6-(thiophen-3-yl)pyrimidine] | 154 to 155 °C | –
3 | C=CCc1c(Cl)nc(N)nc1Cl [Substance 32, 5-allyl-2-amino-4,6-dichloropyrimidine] | 175 to 177 °C | –
4 | [2H]C([2H])([2H])C([2H])([2H])C([2H])([2H])C([2H])([2H])c1c(Cl)nc(N)nc1Cl [Substance 35, 2-amino-5-(perdeutero-butyl)-4,6-dichloropyrimidine] | 170 to 171 °C | –
5 | CCCCc1c(-c2ccccc2)nc(N)nc1-c1ccccc1 [Substance 45, 2-amino-5-butyl-4,6-diphenylpyrimidine] | 154 to 155 °C | –
6 | Nc1nc(I)c(Cc2ccccc2)c(I)n1 [Substance 38, 2-amino-5-benzyl-4,6-diiodopyrimidine] | 198 to 199 °C | –
7 | CCCCc1c(Cl)nc(C)nc1Cl [Substance 62, 5-butyl-4,6-dichloro-2-methylpyrimidine] | 50 to 51 °C | –
8 | CCC(C)c1c(Cl)nc(N)nc1Cl (centres unmarked) [Substance 30, 2-amino-5-(sec-butyl)-4,6-dichloropyrimidine] | 159 to 160 °C | –
9 | C=CCc1c(Cl)nc(NC=O)nc1Cl [Substance 57, 5-allyl-4,6-dichloro-2-formamidopyrimidine] | 85 to 86 °C | –
10 | CCCCc1c(-c2cccnc2)nc(N)nc1-c1cccnc1 [Substance 46, 2-amino-5-butyl-4,6-bis(pyridin-3-yl)pyrimidine] | 173 to 174 °C | –
11 | CN(C)/C=N/c1nc(Cl)c(-c2ccccc2)c(Cl)n1 [Substance 24, 4,6-dichloro-2-{[(dimethylamino)methylene]amino}-5-phenylpyrimidine] | 67 to 68 °C | –
12 | C#CCc1c(Cl)nc(NC=O)nc1Cl [Substance 58, 4,6-dichloro-2-formamido-5-(prop-2-yn-1-yl)pyrimidine] | 127 to 128 °C | –
13 | CN(C)/C=N/c1nc(Cl)c(Cc2ccccc2)c(Cl)n1 [Substance 23, 5-benzyl-4,6-dichloro-2-{[(dimethylamino)methylene]amino}pyrimidine] | 63 to 65 °C | –
14 | [2H]C([2H])([2H])C([2H])([2H])C([2H])([2H])C([2H])([2H])c1c(Cl)nc(NC=O)nc1Cl [Substance 52, 5-(perdeutero-butyl)-4,6-dichloro-2-formamidopyrimidine] | 83 to 84 °C | –
15 | CCCCCCc1c(Cl)nc(NC=O)nc1Cl [Substance 55, 4,6-dichloro-2-formamido-5-hexylpyrimidine] | 80 to 81 °C | –
16 | CCc1c(Cl)nc(N)nc1Cl [Substance 26, 2-amino-4,6-dichloro-5-ethylpyrimidine] | 183 to 185 °C | –

Row | SMILES | melting point | other results
17 | CCCCc1c(Cl)nc(/N=C/N(C)C)nc1Cl [Substance 19, 5-butyl-4,6-dichloro-2-{[(dimethylamino)methylene]amino}pyrimidine] | 65 to 67 °C | –
18 | CCCc1c(Cl)nc(N)nc1Cl [Substance 27, 2-amino-4,6-dichloro-5-propylpyrimidine] | 182 to 183 °C | –
19 | CCC(C)c1c(I)nc(N)nc1I (centres unmarked) [Substance 36, 2-amino-5-(sec-butyl)-4,6-diiodopyrimidine] | 173 to 174 °C | –
20 | CCCCc1c(-c2cc3ccccc3o2)nc(N)nc1-c1cc2ccccc2o1 [Substance 47, 2-amino-4,6-bis(benzofuran-2-yl)-5-butylpyrimidine] | 142 to 144 °C | –
21 | CCCCc1c(Cl)nc(NC=O)nc1Cl [Substance 51, 5-butyl-4,6-dichloro-2-formamidopyrimidine] | 82 to 83 °C | –
22 | C=CCc1c(Cl)nc(/N=C/N(C)C)nc1Cl [Substance 17, 5-allyl-4,6-dichloro-2-{[(dimethylamino)methylene]amino}pyrimidine] | 80 to 81 °C | –
23 | CCCCc1c(Cl)nc(S)nc1Cl [Substance 149] | – | Production of prostaglandins IC50 (μmol · 1^−1) average value and range of values [1]: 26.35 ± 10.89; n = 4 μmol · 1^−1; Cell viabilities in % of the controls [2]: 99.14 ± 6.73; n = 8 % of the controls; Production of nitric oxide in % of the controls ([3]; Table 3B): 24.12 ± 11.22; n = 6 % of the controls
24 | CCCCc1c(-c2ccsc2)nc(N)nc1-c1ccsc1 [Substance 114] | – | Production of prostaglandins IC50 (μmol · 1^−1) average value and range of values [1]: 37.00 ± 16.33; n = 4 μmol · 1^−1; Cell viabilities in % of the controls [2]: 118.67 ± 2.26; n = 8 % of the controls; Production of nitric oxide in % of the controls ([3]; Table 3B): 70.51 ± 5.78; n = 4 % of the controls
25 | CCCCc1c(-c2ccc(OC)cc2)nc(N)nc1-c1ccccn1 [Substance 77] | – | Production of prostaglandins IC50 (μmol · 1^−1) average value and range of values [1]: 13.48 ± 1.94; n = 4 μmol · 1^−1; Cell viabilities in % of the controls [2]: 100.86 ± 11.78; n = 4 % of the controls; Production of nitric oxide in % of the controls ([3]; Table 3B): 58.20 ± 5.42; n = 6 % of the controls
26 | CCCCc1c(-c2ccccn2)nc(N)nc1-c1cc2ccccc2o1 [Substance 118] | – | Production of prostaglandins IC50 (μmol · 1^−1) average value and range of values [1]: 52.17 ± 14.96; n = 6 μmol · 1^−1; Cell viabilities in % of the controls [2]: 91.38 ± 4.41; n = 8 % of the controls; Production of nitric oxide in % of the controls ([3]; Table 3B): 56.53 ± 3.33; n = 8 % of the controls
27 | CN(C)C=Nc1nc(Cl)c(-c2ccccc2)c(Cl)n1 [Substance 24] | – | Production of prostaglandins in % of the controls [1]: 18.45 ± 13.68 % of the controls; Cell viability in % of the controls [2]: 80.00 ± 11.61 % of the controls; Production of nitric oxide in % of the controls ([3]; Table 3A): 4.97 ± 2.00 % of the controls
28 | CCc1c(Cl)nc(N=CN(C)C)nc1Cl [Substance 14] | – | Production of prostaglandins in % of the controls [1]: 30.40 ± 0.80 % of the controls; Cell viability in % of the controls [2]: 162.93 ± 14.68 % of the controls; Production of nitric oxide in % of the controls ([3]; Table 3A): 23.24 ± 6.78 % of the controls
29 | CCCCc1c(-c2ccccn2)nc(N)nc1-c1cc2ccccc2s1 [Substance 127] | – | Production of prostaglandins IC50 (μmol · 1^−1) average value and range of values [1]: 38.26 ± 14.52; n = 8 μmol · 1^−1; Cell viabilities in % of the controls [2]: 130.66 ± 2.87; n = 8 % of the controls; Production of nitric oxide in % of the controls ([3]; Table 3B): 40.88 ± 6.83; n = 4 % of the controls
30 | CCCCc1c(-c2ccc(OC)cc2)nc(N)nc1-c1ccoc1 [Substance 104] | – | Production of prostaglandins IC50 (μmol · 1^−1) average value and range of values [1]: 57.52 ± 12.44; n = 6 μmol · 1^−1; Cell viabilities in % of the controls [2]: 137.10 ± 2.72; n = 12 % of the controls; Production of nitric oxide in % of the controls ([3]; Table 3B): 71.20 ± 2.85; n = 6 % of the controls
31 | CCCCc1c(Cl)nc(N)nc1-c1ccoc1 [Substance 106] | – | Production of prostaglandins IC50 (μmol · 1^−1) average value and range of values [1]: 22.10 ± 3.44; n = 4 μmol · 1^−1; Cell viabilities in % of the controls [2]: 100.38 ± 5.55; n = 8 % of the controls; Production of nitric oxide in % of the controls ([3]; Table 3B): 54.83 ± 2.82; n = 4 % of the controls
32 | CCC(C)c1c(Cl)nc(N=CN(C)C)nc1Cl (centres unmarked) [Substance 21] | – | Production of prostaglandins in % of the controls [1]: 8.14 ± 0.07 % of the controls; Cell viability in % of the controls [2]: 122.65 ± 14.39 % of the controls; Production of nitric oxide in % of the controls ([3]; Table 3A): 0.69 ± 0.12 % of the controls

Now from value to compound, other results behind:

Row | melting point | SMILES | other results
33 | 183 to 185 °C | CCCCc1c(Cl)nc(N)nc1-c1ccccc1 [Substance 41, 2-amino-5-butyl-4-chloro-6-phenylpyrimidine] | –
34 | 82 to 83 °C | C#CCc1c(Cl)nc(/N=C/N(C)C)nc1Cl [Substance 18, 4,6-dichloro-2-{[(dimethylamino)methylene]amino}-5-(prop-2-yn-1-yl)pyrimidine] | –
35 | 42 to 45 °C | CCCCc1c(Cl)nc(N(C)C)nc1Cl [Substance 63, 5-butyl-4,6-dichloro-2-(dimethylamino)pyrimidine] | –
36 | 77 to 78 °C | CC(C)c1c(Cl)nc(/N=C/N(C)C)nc1Cl [Substance 16, 4,6-dichloro-5-isopropyl-2-{[(dimethylamino)methylene]amino}pyrimidine] | –
37 | 95 to 96 °C | O=CNc1nc(Cl)c(-c2ccccc2)c(Cl)n1 [Substance 56, 4,6-dichloro-2-formamido-5-phenylpyrimidine] | –
38 | 78 to 80 °C | CCc1c(Cl)nc(/N=C/N(C)C)nc1Cl [Substance 14, 4,6-dichloro-5-ethyl-2-{[(dimethylamino)methylene]amino}pyrimidine] | –
39 | 195 to 196 °C | CCCCc1c(Cl)nc(N)nc1-c1cc2ccccc2o1 [Substance 44, 2-amino-4-(benzofuran-2-yl)-5-butyl-6-chloropyrimidine] | –
40 | 123 to 124 °C | Cc1c(Cl)nc(NC=O)nc1Cl [Substance 48, 4,6-dichloro-2-formamido-5-methylpyrimidine] | –
41 | 113 to 115 °C | C=C(Cl)Cc1c(Cl)nc(NC=O)nc1Cl [Substance 60, 4,6-dichloro-5-(2-chloroallyl)-2-formamidopyrimidine] | –
42 | 67 to 68 °C | CCC(C)c1c(Cl)nc(/N=C/N(C)C)nc1Cl (centres unmarked) [Substance 21, 5-sec-butyl-4,6-dichloro-2-{[(dimethylamino)methylene]amino}pyrimidine] | –
43 | 92 to 94 °C | CCCc1c(Cl)nc(NC=O)nc1Cl [Substance 50, 4,6-dichloro-2-formamido-5-propylpyrimidine] | –
44 | 175 to 176 °C | CC(C)c1c(Cl)nc(N)nc1Cl [Substance 29, 2-amino-4,6-dichloro-5-isopropylpyrimidine] | –
45 | 193 to 195 °C | Nc1nc(Cl)c(-c2ccccc2)c(Cl)n1 [Substance 31, 2-amino-4,6-dichloro-5-phenylpyrimidine] | –
